Values of other authors, collected in patent US20240226071A9, “SUSTAINED RELEASE OSMOTIC-CONTROLLED PHARMACEUTICAL COMPOSITION AND PREPARATION METHOD THEREOF” (Anxo Pharmaceutical Co., Ltd., priority 2022, published 2024).

solubility in water: lower than 0.1 mg/mL
Structure (SMILES): O=C1[C@@H]2[C@H]3CC[C@H](C3)[C@@H]2C(=O)N1C[C@@H]1CCCC[C@H]1CN1CCN(c2nsc3ccccc23)CC1 [lurasidone]
